{
  "source": "patent US20100040738A1",
  "about": "“Extension Of Beverage Shelf-Stability By Solute-Ligand Complexes” (PepsiCo., Inc., priority 2008, published 2010)",
  "key": {"[1]": {"tested_on": "spoilage organisms", "experiment": "MIC of antimicrobial candidates (Table II)", "format": "cell-based", "procedure": "“Minimal inhibitory concentration” (MIC) is another term for which no standard time period is included in the definition.\n(§1) In each of the examples below, the period of incubation is 16 weeks which relates to the standard shelf life period for beverages distributed at ambient temperature. If a chemical simply retards growth for a period less than 16 weeks, then it will not fulfill the need of the manufacturer. The concentration of the chemical employed to prohibit spoilage is often reported as the Minimum Inhibitory Concentration (MIC). The MIC value of a candidate compound for use as a beverage preservative is the concentration of the candidate which permits the beverage to remain free of spoilage for a period of 16 weeks."}, "[2]": {"tested_on": "Saccharomyces cerevisiae, Zygosaccharomyces balii and Zygosaccharomyces bisporus", "experiment": "Inhibition of growth of 3 spoilage yeast in model beverage, 16 weeks incubation", "format": "cell-based", "details": "for amount in complex required to inhibit growth of 3 different spoilage yeast: in complex with alpha or beta cyclodextrin", "procedure": "as §1\n(§2) The base composition of the model beverage per liter is: […]\nas §2\nA model high acid beverage system (pH <4.6) of 10% juice content was prepared to test efficacy of methoxycinnamate either in the non-complex form or as the alpha (α) or beta (β) cyclodextrin-included (complex) form. The base composition of the model beverage per liter is: […]"}, "[3]": {"experiment": "Solubility limit in model beverage system, non-complex form or cyclodextrin complex", "format": "physicochemical", "details": "for solubility limit / limit of solubility in beverage: non-complex form; for limit of solubility in beverage: across test beverages", "procedure": "The base composition of the model beverage per liter is:\nA model high acid beverage system (pH <4.6) of 10% juice content was prepared to test efficacy of methoxycinnamate either in the non-complex form or as the alpha (α) or beta (β) cyclodextrin-included (complex) form. The base composition of the model beverage per liter is:\nA model low acid beverage system (pH ≧4.6) with high water activity (>0.97) was prepared to test efficacy of methoxycinnamate either in the non-complex form or as the alpha (α) or beta (β) cyclodextrin-included (complex) form. The base composition of the model beverage per liter is:\nA model high acid beverage system (pH <4.6) of 10% juice content was prepared to test efficacy of trans, trans 2,4 decadienal either in the non-complex form or as the alpha (α) or beta (β) cyclodextrin-included (complex) form. The base composition of the model beverage per liter is:\nA model low acid beverage system (pH ≧4.6) with high water activity (>0.97) was prepared to test efficacy of trans, trans 2,4 decadienal either in the non-complex form or as the alpha (α) or beta (β) cyclodextrin-included (complex) form. The base composition of the model beverage per liter is: […]"}, "[4]": {"details": "high acid model beverage pH 3.4, 5% grape and 5% apple juice (Example 5)"}, "[5]": {"details": "low acid model tea beverage pH 5.3 (Examples 4 and 6)"}, "[6]": {"details": "at limit of solubility, summary of examples"}, "[7]": {"details": "at solubility limit concentration, low acid model tea beverage pH 5.3 (Examples 4 and 6)"}, "[8]": {"details": "in complex with α-cyclodextrin, low acid model tea beverage pH 5.3 (Examples 4 and 6)"}, "[9]": {"details": "in complex with β-cyclodextrin, low acid model tea beverage pH 5.3 (Examples 4 and 6)"}, "[10]": {"details": "high acid model beverage pH 3.4, 10% grape juice (Example 3)"}},
  "note": "Where two headings read alike, the source gives them in different places.",
  "data": [
    {"compound": "O=C(O)CCCC1CCCCC1", "note": "[Cyclohexanebutyric acid]", "values": [
      {"measurement": "MIC", "setting": "[1]; 2688 h, read-out: MIC", "result": 68, "unit": "µg/mL"}
    ]},
    {"compound": "CCCCCCCCCCO", "note": "[1-Decanol]", "values": [
      {"measurement": "MIC", "setting": "[1]; 2688 h, read-out: MIC", "result": 24, "unit": "µg/mL"}
    ]},
    {"compound": "CCCCCCCC1CCC(=O)O1", "note": "(stereo not drawn) [Undecalactone]", "values": [
      {"measurement": "MIC", "setting": "[1]", "result": 28, "unit": "ppm"}
    ]},
    {"compound": "CCCOC(=O)c1ccc(O)cc1", "note": "[propyl paraben, Propyl paraban]", "values": [
      {"measurement": "amount in complex required to inhibit growth of 3 different spoilage yeast", "setting": "[2]; summary of examples", "result": "510-600 ppm"},
      {"measurement": "amount required to inhibit growth of 3 different spoilage yeast", "setting": "[2]; in complex with α-cyclodextrin, high acid model beverage pH 3.4, 10% apple juice (Example 1)", "result": 510, "unit": "mg/L"},
      {"measurement": "amount required to inhibit growth of 3 different spoilage yeast", "setting": "[2]; in complex with α-cyclodextrin, low acid model beverage pH 5.8 (Example 2)", "result": 510, "unit": "mg/L"},
      {"measurement": "amount required to inhibit growth of 3 different spoilage yeast", "setting": "[2]; in complex with β-cyclodextrin, high acid model beverage pH 3.4, 10% apple juice (Example 1)", "result": 600, "unit": "mg/L"},
      {"measurement": "amount required to inhibit growth of 3 different spoilage yeast", "setting": "[2]; in complex with β-cyclodextrin, low acid model beverage pH 5.8 (Example 2)", "result": 650, "unit": "mg/L"}
    ]},
    {"compound": "CCCOC(=O)c1ccccc1", "note": "[Propyl benzoate]", "values": [
      {"measurement": "MIC", "setting": "[1]; 2688 h, read-out: MIC", "result": 66, "unit": "µg/mL"}
    ]},
    {"compound": "CCCCC/C=C/C=C/C=O", "note": "[Trans, trans, 2,4 decadienal]", "values": [
      {"measurement": "solubility in the form of a complex with alpha or beta cyclodextrin", "setting": "[3]; [4]", "result": "≤ 280", "unit": "µg/mL"},
      {"measurement": "solubility in the form of a complex with alpha or beta cyclodextrin", "setting": "[3]; [5]", "result": "≤ 280", "unit": "µg/mL"},
      {"measurement": "solubility limit", "setting": "[3]; [4]", "result": 5.4, "unit": "µg/mL"},
      {"measurement": "solubility limit", "setting": "[3]; [5]", "result": 5.8, "unit": "µg/mL"},
      {"measurement": "limit of solubility in beverage", "setting": "[3]; summary of examples", "result": 57, "unit": "µg/mL"},
      {"measurement": "solubility in the form of a complex with alpha or beta cyclodextrin", "setting": "[3]; summary of examples", "result": "≤ 280", "unit": "µg/mL"},
      {"measurement": "MIC", "setting": "[1]", "result": 8, "unit": "ppm"},
      {"measurement": "effective as a stand alone chemical preservative", "setting": "[2]; [6]", "result": "not effective"},
      {"measurement": "effective as a stand alone chemical preservative", "setting": "[2]; at solubility limit concentration, high acid model beverage pH 3.4, 5% grape and 5% apple juice (Example 5)", "result": "not effective"},
      {"measurement": "effective as a stand alone chemical preservative", "setting": "[2]; [7]", "result": "did not prove effective"},
      {"measurement": "amount in complex required to inhibit growth of 3 different spoilage yeast", "setting": "[2]; summary of examples", "result": "57-124 ppm"},
      {"measurement": "amount required to inhibit growth of 3 different spoilage yeast", "setting": "[2]; in complex with α-cyclodextrin, high acid model beverage pH 3.4, 5% grape and 5% apple juice (Example 5)", "result": 60, "unit": "mg/L"},
      {"measurement": "amount required to inhibit growth of 3 different spoilage yeast", "setting": "[2]; [8]", "result": 57, "unit": "mg/L"},
      {"measurement": "amount required to inhibit growth of 3 different spoilage yeast", "setting": "[2]; in complex with β-cyclodextrin, high acid model beverage pH 3.4, 5% grape and 5% apple juice (Example 5)", "result": 125, "unit": "mg/L"},
      {"measurement": "amount required to inhibit growth of 3 different spoilage yeast", "setting": "[2]; [9]", "result": 123, "unit": "mg/L"}
    ]},
    {"compound": "Cc1ccc(C(C)C)c(O)c1", "note": "[thymol]", "values": [
      {"measurement": "MIC", "setting": "[1]; 2688 h, read-out: MIC", "result": 250, "unit": "µg/mL"}
    ]},
    {"compound": "O=C(OCc1ccccc1)c1ccc(O)cc1", "note": "[Benzyl-4-hydroxbenzoate]", "values": [
      {"measurement": "MIC", "setting": "[1]", "result": 68, "unit": "ppm"}
    ]},
    {"compound": "CCCCCCCCCCC=O", "note": "[Undecanal]", "values": [
      {"measurement": "MIC", "setting": "[1]; 2688 h, read-out: MIC", "result": 34, "unit": "µg/mL"}
    ]},
    {"compound": "O=C(O)C=Cc1ccccc1", "note": "[Cinnamic acid]", "values": [
      {"measurement": "MIC", "setting": "[1]; 2688 h, read-out: MIC", "result": 300, "unit": "µg/mL"}
    ]},
    {"compound": "C/C(C=O)=C\\c1ccccc1", "note": "[methyl trans cinnamylaldehyde]", "values": [
      {"measurement": "MIC", "setting": "[1]", "result": 58.4, "unit": "ppm"}
    ]},
    {"compound": "methoxycinnamate", "values": [
      {"measurement": "solubility in the form of a complex with alpha or beta cyclodextrin", "setting": "[3]; [10]", "result": "≤ 3690", "unit": "µg/mL"},
      {"measurement": "solubility in the form of a complex with alpha or beta cyclodextrin", "setting": "[3]; [5]", "result": "≤ 3411", "unit": "µg/mL"},
      {"measurement": "solubility limit", "setting": "[3]; [10]", "result": 498, "unit": "µg/mL"},
      {"measurement": "solubility limit", "setting": "[3]; [5]", "result": 600, "unit": "µg/mL"},
      {"measurement": "limit of solubility in beverage", "setting": "[3]; summary of examples", "result": "498 to 600", "unit": "µg/mL"},
      {"measurement": "solubility in the form of a complex with alpha or beta cyclodextrin", "setting": "[3]; summary of examples", "result": "≤ 3600", "unit": "µg/mL"},
      {"measurement": "effective as a stand alone chemical preservative", "setting": "[2]; [6]", "result": "not effective"},
      {"measurement": "effective as a stand alone chemical preservative", "setting": "[2]; at solubility limit concentration, high acid model beverage pH 3.4, 10% grape juice (Example 3)", "result": "not effective"},
      {"measurement": "effective as a stand alone chemical preservative", "setting": "[2]; [7]", "result": "did not prove effective"},
      {"measurement": "amount in complex required to inhibit growth of 3 different spoilage yeast", "setting": "[2]; summary of examples", "result": "400-807 ppm"},
      {"measurement": "amount required to inhibit growth of 3 different spoilage yeast", "setting": "[2]; in complex with α-cyclodextrin, high acid model beverage pH 3.4, 10% grape juice (Example 3)", "result": 800, "unit": "mg/L"},
      {"measurement": "amount required to inhibit growth of 3 different spoilage yeast", "setting": "[2]; [8]", "result": 800, "unit": "mg/L"},
      {"measurement": "amount required to inhibit growth of 3 different spoilage yeast", "setting": "[2]; in complex with β-cyclodextrin, high acid model beverage pH 3.4, 10% grape juice (Example 3)", "result": 420, "unit": "mg/L"},
      {"measurement": "amount required to inhibit growth of 3 different spoilage yeast", "setting": "[2]; [9]", "result": 420, "unit": "mg/L"},
      {"measurement": "MIC", "setting": "[2]; in complex with β-cyclodextrin, summary of examples", "result": 400, "unit": "µg/mL"},
      {"measurement": "MIC", "setting": "[2]; non-complex form, summary of examples", "result": "> 600", "unit": "µg/mL"}
    ]},
    {"compound": "CCCCCC1CCC(=O)O1", "note": "(stereo not drawn) [Nonanoic lactone]", "values": [
      {"measurement": "MIC", "setting": "[1]", "result": 63, "unit": "ppm"}
    ]},
    {"compound": "O=CC=Cc1ccccc1", "note": "[Cinnamaldehyde]", "values": [
      {"measurement": "MIC", "setting": "[1]; 2688 h, read-out: MIC", "result": 66, "unit": "µg/mL"}
    ]},
    {"compound": "CCCCCCCCC(=O)O", "note": "[Nonanoic acid]", "values": [
      {"measurement": "MIC", "setting": "[1]; 2688 h, read-out: MIC", "result": 63, "unit": "µg/mL"}
    ]},
    {"compound": "CCCCCCCCCC=O", "note": "[Decanal]", "values": [
      {"measurement": "MIC", "setting": "[1]; 2688 h, read-out: MIC", "result": 47, "unit": "µg/mL"}
    ]},
    {"compound": "CCCCCCCCC(=O)OC", "note": "[Methyl nonaoate]", "values": [
      {"measurement": "MIC", "setting": "[1]", "result": 90, "unit": "ppm"}
    ]},
    {"compound": "COc1ccccc1C=CC=O", "note": "[o-methoxycinnamylaldehyde]", "values": [
      {"measurement": "MIC", "setting": "[1]", "result": 58, "unit": "ppm"}
    ]},
    {"compound": "C=C(C)C1CC=C(C=O)CC1", "note": "(stereo not drawn) [perillaldehyde]", "values": [
      {"measurement": "MIC", "setting": "[1]; 2688 h, read-out: MIC", "result": 500, "unit": "µg/mL"}
    ]},
    {"compound": "CC(=O)OCCC1CCCCC1", "note": "[2-Cyclohexylethyl acetate]", "values": [
      {"measurement": "MIC", "setting": "[1]; 2688 h, read-out: MIC", "result": 102, "unit": "µg/mL"}
    ]},
    {"compound": "C/C=C/C=C/C(=O)O", "note": "[Sorbic acid]", "values": [
      {"measurement": "MIC", "setting": "[1]; 2688 h, read-out: MIC", "result": 1200, "unit": "µg/mL"}
    ]}
  ]
}
